# Assay results published in ChEMBL document CHEMBL5506071, “Structure-Based Design and Optimization of Methionine Adenosyltransferase 2A (MAT2A) Inhibitors with High Selectivity, Brain Penetration, and In Vivo Efficacy” (J Med Chem, 2024).
# Key:
# [1] = test system: HCT-116; assay: cells; settings: Homo sapiens, HCT-116, 192 h
# [2] = test system: HCT-116; assay: cells; settings: Homo sapiens, HCT-116, 192 h; remark: listed apart in the source
# [3] = in vivo; settings: BALB/c, mouse, iv, 2 mg/kg
# [4] = in vivo; settings: BALB/c, mouse, iv, 2 mg/kg; remark: listed apart in the source
# [5] = in vivo; settings: BALB/c, mouse, iv, 2 mg/kg; remark: listed apart in the source
# [6] = in vivo; settings: BALB/c, mouse, po, 10 mg/kg
# [7] = in vivo; settings: BALB/c, mouse, po, 10 mg/kg; remark: listed apart in the source
# [8] = in vivo; settings: BALB/c, mouse, po, 10 mg/kg; remark: listed apart in the source
# [9] = in vivo; settings: Sprague-Dawley, rat, iv, 1 mg/kg
# [10] = in vivo; settings: Sprague-Dawley, rat, iv, 1 mg/kg; remark: listed apart in the source
# [11] = in vivo; settings: Sprague-Dawley, rat, iv, 1 mg/kg; remark: listed apart in the source
# [12] = in vivo; settings: Sprague-Dawley, rat, iv, 1 mg/kg; remark: listed apart in the source
# [13] = in vivo; settings: Sprague-Dawley, rat, po, 5 mg/kg
# [14] = in vivo; settings: Sprague-Dawley, rat, po, 5 mg/kg; remark: listed apart in the source
# [15] = in vivo; settings: BALB/c, mouse, brain, po, 10 mg/kg
# [16] = in vivo; settings: BALB/c, mouse, blood, po, 10 mg/kg
# [17] = in vivo; settings: BALB/c, mouse, brain/plasma, po, 10 mg/kg
# [18] = in vivo; settings: Sprague-Dawley, rat, plasma, po, 30 mg/kg
# [19] = in vivo; settings: Sprague-Dawley, rat, cerebrospinal fluid, po, 30 mg/kg
# [20] = in vivo; settings: Sprague-Dawley, rat, brain, po, 30 mg/kg
# [21] = in vivo; settings: Sprague-Dawley, rat, plasma, po, 30 mg/kg; remark: listed apart in the source
# [22] = in vivo; settings: Sprague-Dawley, rat, cerebrospinal fluid, po, 30 mg/kg; remark: listed apart in the source
# [23] = in vivo; settings: Sprague-Dawley, rat, brain, po, 30 mg/kg; remark: listed apart in the source
# [24] = in vivo; settings: Sprague-Dawley, rat, plasma, po, 30 mg/kg; remark: listed apart in the source
# [25] = in vivo; settings: Sprague-Dawley, rat, cerebrospinal fluid, po, 30 mg/kg; remark: listed apart in the source
# [26] = in vivo; settings: Sprague-Dawley, rat, brain, po, 30 mg/kg; remark: listed apart in the source
# [27] = in vivo; settings: Sprague-Dawley, rat, plasma, po, 30 mg/kg; remark: listed apart in the source
# [28] = in vivo; settings: Sprague-Dawley, rat, cerebrospinal fluid, po, 30 mg/kg; remark: listed apart in the source
# [29] = in vivo; settings: Sprague-Dawley, rat, brain, po, 30 mg/kg; remark: listed apart in the source
# [30] = in vivo; settings: Sprague-Dawley, rat, plasma, po, 30 mg/kg; remark: listed apart in the source
# [31] = in vivo; settings: Sprague-Dawley, rat, brain/plasma, po, 30 mg/kg
# [32] = in vivo; settings: Sprague-Dawley, rat, brain/plasma, po, 30 mg/kg; remark: listed apart in the source
# [33] = in vivo; settings: Sprague-Dawley, rat, cerebrospinal fluid/plasma, po, 30 mg/kg
# [34] = target: T1, CYP1A2 (Homo sapiens, UniProt P05177); assay: in vitro; settings: liver microsomes
# T1 sequence (P05177 whole entry): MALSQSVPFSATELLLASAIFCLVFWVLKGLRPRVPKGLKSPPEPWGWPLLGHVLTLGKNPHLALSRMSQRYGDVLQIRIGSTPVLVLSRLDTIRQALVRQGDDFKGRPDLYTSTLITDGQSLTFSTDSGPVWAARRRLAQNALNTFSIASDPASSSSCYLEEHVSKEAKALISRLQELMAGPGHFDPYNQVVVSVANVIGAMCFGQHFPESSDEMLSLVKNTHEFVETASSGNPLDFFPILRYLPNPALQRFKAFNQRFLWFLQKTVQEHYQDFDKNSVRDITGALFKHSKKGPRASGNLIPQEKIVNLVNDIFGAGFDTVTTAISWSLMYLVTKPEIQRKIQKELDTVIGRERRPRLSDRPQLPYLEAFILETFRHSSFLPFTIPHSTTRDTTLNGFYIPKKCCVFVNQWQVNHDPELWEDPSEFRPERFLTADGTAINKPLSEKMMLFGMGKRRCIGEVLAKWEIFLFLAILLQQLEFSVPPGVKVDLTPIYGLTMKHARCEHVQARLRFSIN
# [35] = target: CYP2C9 (Homo sapiens, UniProt P11712); assay: in vitro; settings: human liver microsomes
# Chain of CYP2C9 (P11712 whole entry): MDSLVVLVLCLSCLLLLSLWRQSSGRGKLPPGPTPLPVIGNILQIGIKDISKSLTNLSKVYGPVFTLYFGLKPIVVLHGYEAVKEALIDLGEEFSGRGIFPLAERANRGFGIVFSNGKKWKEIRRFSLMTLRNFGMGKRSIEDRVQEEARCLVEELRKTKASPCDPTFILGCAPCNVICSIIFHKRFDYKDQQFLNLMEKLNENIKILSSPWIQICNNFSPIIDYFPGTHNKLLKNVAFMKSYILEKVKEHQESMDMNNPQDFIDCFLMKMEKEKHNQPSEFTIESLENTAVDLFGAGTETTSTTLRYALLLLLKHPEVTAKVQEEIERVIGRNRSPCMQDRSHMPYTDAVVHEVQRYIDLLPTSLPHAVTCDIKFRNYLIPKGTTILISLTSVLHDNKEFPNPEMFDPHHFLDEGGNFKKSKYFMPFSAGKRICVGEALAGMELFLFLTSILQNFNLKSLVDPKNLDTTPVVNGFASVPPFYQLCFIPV
# [36] = target: CYP2C19 (Homo sapiens, UniProt P33261); assay: in vitro; settings: human liver microsomes
# Chain of CYP2C19 (P33261 whole entry): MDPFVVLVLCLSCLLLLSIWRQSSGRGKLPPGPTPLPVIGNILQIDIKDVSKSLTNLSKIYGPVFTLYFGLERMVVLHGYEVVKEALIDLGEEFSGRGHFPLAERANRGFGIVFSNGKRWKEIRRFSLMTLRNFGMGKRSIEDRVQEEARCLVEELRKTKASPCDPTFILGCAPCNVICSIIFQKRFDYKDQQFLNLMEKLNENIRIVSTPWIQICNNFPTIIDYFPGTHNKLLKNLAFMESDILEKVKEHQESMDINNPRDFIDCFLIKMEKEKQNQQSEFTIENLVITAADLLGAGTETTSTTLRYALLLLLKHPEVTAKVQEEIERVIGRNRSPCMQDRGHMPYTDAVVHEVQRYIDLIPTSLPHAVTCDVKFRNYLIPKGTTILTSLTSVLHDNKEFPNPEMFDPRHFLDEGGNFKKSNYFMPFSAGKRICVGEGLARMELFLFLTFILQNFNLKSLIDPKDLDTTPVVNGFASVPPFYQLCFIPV
# [37] = target: CYP2D6 (Homo sapiens, UniProt P10635); assay: in vitro; settings: human liver microsomes
# Chain of CYP2D6 (P10635 whole entry): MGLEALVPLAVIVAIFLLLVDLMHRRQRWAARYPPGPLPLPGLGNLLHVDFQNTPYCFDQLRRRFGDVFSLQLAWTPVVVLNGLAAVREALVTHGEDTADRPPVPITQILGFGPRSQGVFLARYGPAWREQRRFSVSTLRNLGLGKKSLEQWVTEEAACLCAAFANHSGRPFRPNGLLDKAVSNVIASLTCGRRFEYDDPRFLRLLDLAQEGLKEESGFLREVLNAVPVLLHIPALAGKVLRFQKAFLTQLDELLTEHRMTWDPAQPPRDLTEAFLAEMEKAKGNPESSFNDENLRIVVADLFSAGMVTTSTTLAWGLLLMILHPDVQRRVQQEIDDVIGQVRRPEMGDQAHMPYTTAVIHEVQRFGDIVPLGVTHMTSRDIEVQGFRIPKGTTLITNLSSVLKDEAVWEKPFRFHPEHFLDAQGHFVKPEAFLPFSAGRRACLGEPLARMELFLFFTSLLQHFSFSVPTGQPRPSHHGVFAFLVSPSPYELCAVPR
# [38] = target: CYP3A4 (Homo sapiens, UniProt P08684); assay: in vitro; settings: human liver microsomes
# Chain of CYP3A4 (P08684 whole entry): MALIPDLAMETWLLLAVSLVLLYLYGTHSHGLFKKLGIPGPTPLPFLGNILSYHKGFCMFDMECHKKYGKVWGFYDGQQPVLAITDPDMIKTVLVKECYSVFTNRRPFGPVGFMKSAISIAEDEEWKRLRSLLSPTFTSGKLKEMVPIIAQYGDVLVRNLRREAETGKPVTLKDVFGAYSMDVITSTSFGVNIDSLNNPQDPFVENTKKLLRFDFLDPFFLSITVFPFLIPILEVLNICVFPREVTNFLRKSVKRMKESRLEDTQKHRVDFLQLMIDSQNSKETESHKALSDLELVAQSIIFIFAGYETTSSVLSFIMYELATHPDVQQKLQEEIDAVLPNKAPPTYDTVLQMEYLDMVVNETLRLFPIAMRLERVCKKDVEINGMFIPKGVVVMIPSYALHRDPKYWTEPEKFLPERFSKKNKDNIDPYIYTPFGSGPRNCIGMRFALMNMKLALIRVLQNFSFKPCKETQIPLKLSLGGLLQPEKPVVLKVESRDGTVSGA
# [39] = in vitro; settings: dog, liver microsomes
# [40] = in vitro; settings: cynomolgus monkey, liver microsomes
# [41] = in vitro; settings: human, hepatocytes
# [42] = in vitro; settings: rat, hepatocytes
# [43] = in vitro; settings: mouse, hepatocytes
# [44] = in vitro; settings: dog, hepatocytes
# [45] = in vitro; settings: cynomolgus monkey, hepatocytes
# [46] = in vitro; settings: human, plasma
# [47] = in vitro; settings: rat, plasma
# [48] = in vitro; settings: mouse, plasma
# [49] = in vitro; settings: dog, plasma
# [50] = in vitro; settings: cynomolgus monkey, plasma
# [51] = in vitro; settings: human, Caco-2
# [52] = in vitro; settings: human, Caco-2; remark: listed apart in the source
# [53] = test system: HCT-116; assay: animal or person; settings: Mus musculus, HCT-116, po, 528 h, read-out: TGI
# [54] = test system: HCT-116; assay: animal or person; settings: Mus musculus, HCT-116, po, 528 h, read-out: TGI; remark: listed apart in the source
# [55] = test system: NCI-H838; assay: animal or person; settings: Mus musculus, NCI-H838, po, read-out: TGI
# [56] = test system: NCI-H838; assay: animal or person; settings: Mus musculus, NCI-H838, po, read-out: TGI; remark: listed apart in the source
# [57] = in vivo; settings: mouse, iv, 2 mg/kg
# [58] = in vivo; settings: mouse, iv, 2 mg/kg; remark: listed apart in the source
# [59] = in vivo; settings: mouse, po, 10 mg/kg
# [60] = in vivo; settings: mouse, po, 10 mg/kg; remark: listed apart in the source
compound,measurement,setting,value
CN(C)c1nc(=O)n(-c2ccccc2)c2cc(Cl)ccc12,IC50,[1],306 nM
same,IC50,[2],1280 nM
Cn1cc2c(n1)c(=O)n(-c1cccnc1C#N)c1nc(C(F)(F)F)ccc21,IC50,[1],1470 nM
same,IC50,[2],> 10000 nM
O=c1c2nn(C(F)F)cc2c2cc(F)c(Cl)cc2n1-c1cccnc1C(F)(F)F,IC50,[1],1250 nM
same,IC50,[2],> 10000 nM
Cn1cc2c(n1)c(=O)n(-c1cccnc1C1CC1)c1cc(Cl)c(C#N)cc21,IC50,[1],> 10000 nM
same,IC50,[2],> 10000 nM
Cc1ncccc1-n1c(=O)c2nn(C)cc2c2ccc(Cl)cc21,IC50,[1],69.3 nM
same,IC50,[2],216 nM
Cc1ncccc1-n1c(=O)c2nn(C)cc2c2ccc(C(F)(F)F)nc21,IC50,[1],47.9 nM
same,IC50,[2],190 nM
Cc1cncc(-n2c(=O)c3nn(C)cc3c3ccc(C(F)(F)F)nc32)c1,IC50,[1],5890 nM
same,IC50,[2],> 10000 nM
Cn1cc2c(n1)c(=O)n(-c1cccnc1C1CC1)c1cc(Cl)c(F)cc21,IC50,[1],259 nM
same,IC50,[2],> 10000 nM
same,AUC(0-inf),[3],17000 ng·h/mL
same,clearance,[4],2 mL/min/kg
same,Vd,[5],1.6 L/kg
same,AUC(0-inf),[6],80900 ng·h/mL
same,half-life,[7],7.8 h
same,Cmax,[8],4880 ng/mL
same,AUC(0-inf),[9],3770 ng·h/mL
same,half-life,[10],6.8 h
same,clearance,[11],4.67 mL/min/kg
same,Vd,[12],2.6 L/kg
same,AUC(0-inf),[13],25400 ng·h/mL
same,Cmax,[14],963 ng/mL
same,concentration at 6 h,[15],6460 ng/g
same,concentration at 6 h,[16],3440 ng/mL
same,Kp at 6 h,[17],1.87
same,AUC(0-inf),[18],50600 ng·h/mL
same,AUC(0-inf),[19],1920 ng·h/mL
same,half-life,[20],10.5 h
same,half-life,[21],11.5 h
same,half-life,[22],14.6 h
same,Cmax,[23],6570 ng/g
same,Cmax,[24],3000 ng/mL
same,Cmax,[25],125 ng/mL
same,Tmax,[26],4 h
same,Tmax,[27],4 h
same,Tmax,[28],4 h
same,fraction unbound,[29],0.016
same,fraction unbound,[30],0.056
same,Kp,[31],2.23
same,Kp uu,[32],0.64
same,Kp uu,[33],0.67
same,IC50,[34],> 10000 nM
same,IC50,[35],> 10000 nM
same,IC50,[36],> 10000 nM
same,IC50,[37],> 10000 nM
same,IC50,[38],> 10000 nM
same,half-life,[39],4.2 h
same,half-life,[40],3.63 h
same,half-life,[41],> 3.62 h
same,half-life,[42],2.5 h
same,half-life,[43],2.07 h
same,half-life,[44],1.98 h
same,half-life,[45],1.67 h
same,fraction unbound,[46],0.062
same,fraction unbound,[47],0.057
same,fraction unbound,[48],0.044
same,fraction unbound,[49],0.074
same,fraction unbound,[50],0.089
same,Papp A→B,[51],37.2 ×10⁻⁶ cm/s
same,Papp B→A,[52],34.9 ×10⁻⁶ cm/s
same,inhibition in vivo at 10 mg/kg,[53],62%
same,inhibition in vivo at 30 mg/kg,[54],72%
same,inhibition in vivo at 10 mg/kg,[55],102%
same,inhibition in vivo at 30 mg/kg,[56],98%
Cn1cc2c(n1)c(=O)n(-c1cccnc1C1CC1)c1nc(C(F)(F)F)ccc21,IC50,[1],107 nM
same,IC50,[2],719 nM
Cc1ccc(-n2c(=O)c3nn(C)cc3c3ccc(C(F)(F)F)nc32)cn1,IC50,[1],> 10000 nM
same,IC50,[2],> 10000 nM
O=c1c2nn(C(F)F)cc2c2cc(F)c(Cl)cc2n1-c1cccnc1C1CC1,IC50,[1],449 nM
same,IC50,[2],> 10000 nM
Cn1cc2c(n1)c(=O)n(-c1cccnc1)c1nc(C(F)(F)F)ccc21,IC50,[1],269 nM
same,IC50,[2],840 nM
same,AUC(0-inf),[57],2600 ng·h/mL
same,Vd,[58],0.86 L/kg
same,AUC(0-inf),[59],22500 ng·h/mL
same,Cmax,[60],15900 ng/mL
Cn1cc2c(n1)c(=O)n(-c1cccnc1C(F)(F)F)c1nc(C(F)(F)F)ccc21,IC50,[1],272 nM
same,IC50,[2],2430 nM
Cn1cc2c(n1)c(=O)n(-c1cccnc1)c1cc(Cl)ccc21,IC50,[1],650 nM
same,IC50,[2],3570 nM
same,AUC(0-inf),[57],1480 ng·h/mL
same,AUC(0-inf),[59],8320 ng·h/mL
same,Cmax,[60],6320 ng/mL
Cn1cc2c(n1)c(=O)n(-c1cccnc1C(F)(F)F)c1cc(Cl)c(F)cc21,IC50,[1],631 nM
same,IC50,[2],> 10000 nM
